For assay [1], the target named is T1, FASN Keto-reductase Domain (Homo sapiens, UniProt P49327).
T1 construct: 10 μL hFASN enzyme (full length, 300 ng, purified in house) and 360 μM NADPH; made in house
The assay is described as follows: Fatty Acid Synthase Keto-Reductase Domain (FASN KR) Inhibition. To be noted: mean where tested more than once; read-out: FASN K-R Domain pIC50 (converted). It counts as biochemical. How it is done: 10 μL assay buffer (100 mM KH2PO4 pH 7.5) was added to a 384-well clear plate (costar 3702). 0.3 μL compound (at concentrations of 30 μM, 10 μM, 3 μM, 1 μM, 0.30 μM, 0.10 μM, 0.03 μM and 0.01 μM)/DMSO, 10 μL hFASN enzyme (full length, 300 ng, purified in house) and 360 μM NADPH (except in blank) were then added. Then, 10 μL 180 mM ethyl acetoacetate (Aldrich 688983) was added, mixed and immediately thereafter, the absorbance at 340 nm (T1) by Multiscan (Labsystems) was measured. After 20 minutes incubation at room temperature the plate was measured again (T2).
The decrease in absorbance was calculated as (Absorbance before incubation T1)−(Absorbance following incubation T2).
(§1) Raw data generated by the instrument were normalized to % Controlmin values, which were calculated as: % Controlmin=100*(x−mLC)/(mHC−mLC)
(§2) where mLC and mHC were the means of the low control wells and high control wells on the plate, after manual exclusion of outliers. A plot of Controlmin versus test compound concentration was fitted to a 4-parameter logistic curve using a non-linear least squares regression method. From the plot, an IC50 (concentration at which 50% inhibition is achieved) was calculated. pIC50 values were calculated as −log(IC50), when IC50 is expressed in molar units.

For assay [2], the system named is A2780 ovarian cells. The assay is described as follows: A2780 Ovarian Cell Proliferation Assay in Lipid Reduced Medium, with Palmitate (control). Type of assay: cell-based. To be noted: Homo sapiens, A2780; lipid reduced medium, 25 μM palmitate, 96 h, MTT; read-out: Proliferation A2780 with Palmitate pIC50 (converted). How it is done: (§3) The biological assays described below correspond to comparative assays for ovarian cell proliferation. […] Compounds active in the absence of palmitate would not be expected to be active in the control.
(§4) 2500 cells were seeded in a 96-well clear well plate in 200 μL RPMI1640 with 10% Fetal Calf Serum (Hyclone), and incubated at 37° C., 5% CO2. Blanks were wells without cells. The next day the culture medium was aspirated and replaced by 160 μL culture medium with 10% Lipid-Reduced Serum (LRS, Hyclone). 20 μL test compound (at concentrations of 30 μM, 10 μM, 3 μM, 1 μM, 0.30 μM, 0.10 μM, 0.03 μM and 0.01 μM)/DMSO dilution followed by 20 μL palmitate-BSA solution were added to a final concentrations of 0.2% DMSO, 25 μM palmitate (Sigma, P0500, 10 mM stock solution in ethanol) 0.2% fatty-acid-free BSA, 0.25% ethanol. After 96 h incubation, an MTT assay was performed. The absorbance was measured at 544 nm on a SPECTRAMAX.
A best fit curve was fitted by a minimum sum of squares method, plotting Controlmin versus test compound concentration. From the plot, an IC50 (concentration at which 50% inhibition is achieved) was calculated. pIC50 values, presented in the Table below, were calculated as −log(IC50).
(§5) Representative compounds of the present invention were tested according to the procedure as described in Biological Example 3 above, with results as listed in Table BIO-3, below.

In assay [3] the target is T2, hFASN enzyme (full length) (Homo sapiens, UniProt P49327).
T2 construct: 10 μL hFASN enzyme (full length, 300 ng, purified in house); made in house
T2 sequence (P49327 whole entry): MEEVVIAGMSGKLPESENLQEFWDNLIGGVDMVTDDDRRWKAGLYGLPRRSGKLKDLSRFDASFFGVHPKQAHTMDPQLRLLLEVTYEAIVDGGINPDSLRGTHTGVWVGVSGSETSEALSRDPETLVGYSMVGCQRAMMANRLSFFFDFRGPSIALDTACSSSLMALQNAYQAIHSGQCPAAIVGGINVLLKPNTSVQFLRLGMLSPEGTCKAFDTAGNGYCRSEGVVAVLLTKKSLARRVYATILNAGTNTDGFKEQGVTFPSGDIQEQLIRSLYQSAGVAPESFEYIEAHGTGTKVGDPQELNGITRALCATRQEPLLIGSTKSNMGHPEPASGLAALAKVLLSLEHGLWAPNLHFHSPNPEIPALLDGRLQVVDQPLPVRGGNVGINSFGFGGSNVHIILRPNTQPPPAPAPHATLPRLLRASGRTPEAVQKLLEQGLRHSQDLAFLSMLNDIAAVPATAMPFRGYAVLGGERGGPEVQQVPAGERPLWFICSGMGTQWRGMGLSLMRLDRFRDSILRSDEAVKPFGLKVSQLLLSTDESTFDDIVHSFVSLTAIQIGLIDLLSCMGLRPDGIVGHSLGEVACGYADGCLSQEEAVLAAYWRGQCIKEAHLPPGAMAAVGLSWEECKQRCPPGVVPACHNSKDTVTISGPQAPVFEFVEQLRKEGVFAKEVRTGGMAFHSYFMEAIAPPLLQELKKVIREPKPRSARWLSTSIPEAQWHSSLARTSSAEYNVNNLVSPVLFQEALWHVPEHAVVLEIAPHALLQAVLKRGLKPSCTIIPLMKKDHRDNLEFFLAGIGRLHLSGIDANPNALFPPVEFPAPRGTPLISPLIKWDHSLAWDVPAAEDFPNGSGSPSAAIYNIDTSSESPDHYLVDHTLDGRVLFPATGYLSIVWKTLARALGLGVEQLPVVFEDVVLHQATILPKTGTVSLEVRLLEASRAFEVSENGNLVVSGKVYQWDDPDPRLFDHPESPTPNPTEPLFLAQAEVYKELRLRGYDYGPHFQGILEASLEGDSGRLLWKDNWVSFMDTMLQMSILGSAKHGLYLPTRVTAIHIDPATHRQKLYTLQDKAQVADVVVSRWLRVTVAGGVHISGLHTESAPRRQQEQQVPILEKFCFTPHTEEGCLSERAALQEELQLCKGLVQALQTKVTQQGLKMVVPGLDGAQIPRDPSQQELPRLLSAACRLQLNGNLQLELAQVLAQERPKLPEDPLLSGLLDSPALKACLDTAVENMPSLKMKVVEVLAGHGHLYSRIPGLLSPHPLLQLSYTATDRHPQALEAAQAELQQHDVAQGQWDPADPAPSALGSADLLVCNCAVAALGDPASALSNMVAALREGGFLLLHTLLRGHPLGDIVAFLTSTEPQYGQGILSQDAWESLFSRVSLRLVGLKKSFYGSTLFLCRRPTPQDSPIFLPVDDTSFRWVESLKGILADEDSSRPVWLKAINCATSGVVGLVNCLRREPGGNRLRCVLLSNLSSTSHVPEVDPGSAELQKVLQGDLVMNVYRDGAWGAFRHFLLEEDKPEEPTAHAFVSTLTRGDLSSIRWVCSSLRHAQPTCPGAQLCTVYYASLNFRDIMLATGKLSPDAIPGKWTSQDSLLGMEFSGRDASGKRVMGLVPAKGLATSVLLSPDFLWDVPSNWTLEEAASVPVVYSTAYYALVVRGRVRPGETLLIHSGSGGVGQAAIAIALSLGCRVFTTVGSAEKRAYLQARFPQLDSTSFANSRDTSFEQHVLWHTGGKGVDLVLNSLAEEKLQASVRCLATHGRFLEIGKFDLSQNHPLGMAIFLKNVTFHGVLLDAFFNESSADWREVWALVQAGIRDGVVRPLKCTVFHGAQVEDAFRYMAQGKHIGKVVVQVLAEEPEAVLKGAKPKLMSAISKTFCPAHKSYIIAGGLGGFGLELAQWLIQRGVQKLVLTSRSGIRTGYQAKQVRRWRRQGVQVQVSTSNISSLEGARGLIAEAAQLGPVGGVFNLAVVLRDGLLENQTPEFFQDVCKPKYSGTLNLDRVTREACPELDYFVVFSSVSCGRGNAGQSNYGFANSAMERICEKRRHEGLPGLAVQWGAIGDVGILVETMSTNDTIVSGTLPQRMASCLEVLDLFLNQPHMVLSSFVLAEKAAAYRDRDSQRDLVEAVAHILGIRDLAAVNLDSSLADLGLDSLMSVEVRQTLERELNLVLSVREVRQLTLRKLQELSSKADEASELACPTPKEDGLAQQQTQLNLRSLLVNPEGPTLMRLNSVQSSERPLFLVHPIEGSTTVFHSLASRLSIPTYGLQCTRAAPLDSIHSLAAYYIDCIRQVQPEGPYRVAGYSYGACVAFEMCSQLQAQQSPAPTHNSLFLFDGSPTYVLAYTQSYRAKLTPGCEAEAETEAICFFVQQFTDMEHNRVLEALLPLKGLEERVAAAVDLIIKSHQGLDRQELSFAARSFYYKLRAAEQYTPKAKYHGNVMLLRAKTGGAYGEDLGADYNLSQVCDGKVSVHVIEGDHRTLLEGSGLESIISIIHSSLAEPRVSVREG
The assay is described as follows: Fatty Acid Synthase (FASN) Inhibition Scintillation Proximity Assay. It counts as biochemical. To be noted: for IC50: mean where tested more than once, ~ = standard error of pIC50 larger than 0.5; for inhibition at 10 µM: read-out: FASN % Effect @1E−05M. How it is done: In this assay, inhibition of FASN activity is measured using ^3H-acetyl-CoA and malonyl-CoA as substrates. ^3H-Acetyl CoA is converted to ^3H-palmitate through a series of reactions by the FASN protein, which contains 7 functional domains and carries out 7 enzymatic reactions to ultimately produce ^3H-palmitate. The assay principle is based upon the fact that ^3H-acetyl-CoA is hydrophilic and the end product, ^3H-palmitate is hydrophobic.
10 μL assay buffer (100 mM KH2PO4 pH 7.5, 1 mM DTT) (20 μL in blanks) was added to a 384-well white Opti Plate plate (Perkin Elmer). 0.9 μL test compound (at concentrations of 30 μM, 10 μM, 3 μM, 1 μM, 0.30 μM, 0.10 μM, 0.03 μM and 0.01 μM)/DMSO and 10 μL hFASN enzyme (full length, 300 ng, purified in house) or 10 μL assay buffer was added to the wells. Then 10 μL 450 μM NADPH (Sigma N7505), 18.75 μM [^3H]-acetyl-CoA (Perkin Elmer NET-290L), 150 μM malonyl-CoA (Sigma M4263) were added, mixed and incubated at room temperature for 60 minutes. The reaction was stopped by adding 20 μL Streptavidin coupled imaging beads (25 mg/ml). After incubation for 30 minutes at room temperature in the dark, the 384 well plate was centrifuged at 1500 rpm for 3 minutes and was measured after at least 24 hrs by the LEADseeker™, measuring emission using a 610±20 nm pass filter. (Bays, N. W., et al., “A simplified scintillation proximity assay for fatty acid synthase activity: development and comparison with other FAS activity assays”, J. Biomol. Screen, 2009, pp 636-642, Vol. 14(6).)
as §1, §2
(In general: SPA uses beads or plates that emit light when radiolabelled molecules are held near them.)

The test system of assay [4] is A2780 ovarian cells. The assay is described as follows: A2780 Ovarian Cell Proliferation Assay in Lipid Reduced Medium, without Palmitate. It counts as cell-based. The conditions noted are these: Homo sapiens, A2780; lipid reduced medium, without palmitate, 96 h, MTT; read-out: Proliferation A2780 w/o Palmitate pIC50 (converted). How it is done:
as §3
as §4, with “ethanol-BSA” for “palmitate-BSA”, “DMSO,” for “DMSO, 25 μM palmitate (Sigma, P0500, 10 mM stock solution in ethanol)”, “incubation” for “incubation,”
as §1, §2, §5

Structures are written as SMILES.

These results are taken from patent US9562035B2, “Benzamide derivative useful as FASN inhibitors for the treatment of cancer” (Janssen Pharmaceutica NV, priority 2013, dated 2017).

T1 sequence (P49327 whole entry, the tested form may be a part): as the sequence (P49327 whole entry) above

For `COc1ccc(C(=O)Nc2cc(C(=O)N3CCC(c4ccc(-c5cnn(C)c5)cc4)CC3)ccc2C)cn1` [Compound 113, 6-methoxy-N-(2-methyl-5-(4-(4-(1-methyl-1H-pyrazol-4-yl)phenyl)piperidine-1-carbonyl)phenyl)nicotinamide], the IC50 was 0.0479 µM in assay [1], greater than 10 µM in the assay with A2780 ovarian cells [2], 0.0288 µM in assay [3] and 0.0676 µM in the assay on A2780 ovarian cells [4]. Also, in assay [3], the inhibition at 10 µM was determined as 104%.

With `CCCCCN1CC(C(=O)Nc2cc(C(=O)N3CCC(c4ccc(-c5cnn(C)c5)cc4)CC3)ccc2C)C1` [Compound 214, N-(2-methyl-5-(4-(4-(1-methyl-1H-pyrazol-4-yl)phenyl)piperidine-1-carbonyl)phenyl)-1-pentylazetidine-3-carboxamide], the IC50 in assay [1] was 0.282 µM; in the assay with A2780 ovarian cells [2], 9.55 µM; in assay [3] it was 0.166 µM; in the assay on A2780 ovarian cells [4], 0.275 µM. Further, the inhibition at 10 µM in assay [3] was determined as 107%.

`CC(C)Nc1ccc(C(=O)Nc2cc(C(=O)N3CC(c4ccc(-c5ccc6cnccc6c5)cc4)C3)ccc2Cl)cn1` [Compound #75, N-(2-chloro-5-(3-(4-(isoquinolin-6-yl)phenyl)azetidine-1-carbonyl)phenyl)-6-(isopropylamino)nicotinamide]: the IC50 is 0.055 µM in assay [1], greater than 15.1 µM in the assay with A2780 ovarian cells [2], 0.0537 µM in assay [3] and 0.135 µM in the assay on A2780 ovarian cells [4]. In addition, in assay [3], the inhibition at 10 µM turned out to be 92%.

In the case of `CCc1ccc(C(=O)N2CCC(c3ccc(-c4cnn(C)c4)cc3)CC2)cc1NC(=O)c1ccc(Cl)nc1` [Compound #255, 6-chloro-N-(2-ethyl-5-(4-(4-(1-methyl-1H-pyrazol-4-yl)phenyl)piperidine-1-carbonyl)phenyl)nicotinamide], the IC50 is 0.0724 µM in assay [1], greater than 10 µM with A2780 ovarian cells [2], 0.024 µM in assay [3] and 0.0398 µM with A2780 ovarian cells [4]. The inhibition at 10 µM in assay [3] stood at 113%.

Take `COc1ccccc1C(=O)Nc1cc(C(=O)N2CCC(c3ccc(-c4cnn(C)c4)cc3)CC2)ccc1C` [Compound 105, 2-methoxy-N-(2-methyl-5-(4-(4-(1-methyl-1H-pyrazol-4-yl)phenyl)piperidine-1-carbonyl)phenyl)benzamide]: the IC50 in assay [1] was 0.617 µM; in the assay on A2780 ovarian cells [2], 3.02 µM; in assay [3], 0.309 µM; in the assay on A2780 ovarian cells [4] it was 0.955 µM. In addition, the inhibition at 10 µM in assay [3] is 86%.

In the case of `Cc1ccc(C(=O)N2CCC(c3ccc(-c4cnn(C)c4)cc3)CC2)cc1NC(=O)c1cc(F)ccc1C` [Compound 137, 5-fluoro-2-methyl-N-(2-methyl-5-(4-(4-(1-methyl-1H-pyrazol-4-yl)phenyl)piperidine-1-carbonyl)phenyl)benzamide], the IC50 in assay [1] is 0.24 µM; in the assay on A2780 ovarian cells [2], greater than 10 µM; in assay [3], 0.055 µM; in the assay on A2780 ovarian cells [4] it was 0.417 µM. Also, the inhibition at 10 µM in assay [3] worked out at 103%.

As for `Cc1ccc(C(=O)N2CCC(c3ccc(-c4cnn(C)c4)cc3)CC2)cc1NC(=O)c1ccc(Cl)cc1Cl` [Compound 122, 2,4-dichloro-N-(2-methyl-5-(4-(4-(1-methyl-1H-pyrazol-4-yl)phenyl)piperidine-1-carbonyl)phenyl)benzamide], the IC50 in assay [1] is 0.0759 µM; with A2780 ovarian cells [2], greater than 10 µM; in assay [3] it was 0.0186 µM; in the assay with A2780 ovarian cells [4], 0.117 µM. The inhibition at 10 µM in assay [3] stood at 101%.

Consider `Cc1ccc(C(=O)N2CCC(c3ccc(-c4cn[nH]c4)cc3)CC2)cc1NC(=O)c1ccc(NC(C)C)nc1` [Compound 42, N-(5-(4-(4-(1H-pyrazol-4-yl)phenyl)piperidine-1-carbonyl)-2-methylphenyl)-6-(isopropylamino)nicotinamide], for which the IC50 in assay [1] was 0.0347 µM; in the assay with A2780 ovarian cells [2] it was greater than 10 µM; in assay [3], 0.0214 µM; in the assay on A2780 ovarian cells [4], 0.102 µM. The inhibition at 10 µM in assay [3] was found to be 106%.

Consider `Cc1ccc(C(=O)N2CCC(c3ccc(-c4cnn(C)c4)cc3)CC2)cc1NC(=O)C1CCN(C(C)C)CC1` [Compound #182, 1-isopropyl-N-(2-methyl-5-(4-(4-(1-methyl-1H-pyrazol-4-yl)phenyl)piperidine-1-carbonyl)phenyl)piperidine-4-carboxamide], for which the IC50 in assay [1] is 0.112 µM; in the assay on A2780 ovarian cells [2], greater than 10 µM; in assay [3], 0.0275 µM; in the assay with A2780 ovarian cells [4], 0.0457 µM. Besides, the inhibition at 10 µM in assay [3] is 111%.

For `COc1ccc(C(=O)N2CC(c3ccc(-c4cnn(C)c4)cc3)C2)cc1NC(=O)c1ccc(Cl)nc1` [Compound 183, 6-chloro-N-(2-methoxy-5-(3-(4-(1-methyl-1H-pyrazol-4-yl)phenyl)azetidine-1-carbonyl)phenyl)nicotinamide], the IC50 was greater than 10 µM with A2780 ovarian cells [2] and 0.407 µM in the assay on A2780 ovarian cells [4]. The inhibition at 10 µM in assay [3] turned out to be 98%.

Consider `COc1ncccc1C(=O)Nc1cc(C(=O)N2CCC(c3ccc(-c4cnn(C)c4)cc3)CC2)ccc1C` [Compound 118, 2-methoxy-N-(2-methyl-5-(4-(4-(1-methyl-1H-pyrazol-4-yl)phenyl)piperidine-1-carbonyl)phenyl)nicotinamide], for which the values for the IC50 (in assay [1]; in the assay on A2780 ovarian cells [2]; in the assay on A2780 ovarian cells [4]) were 0.288 µM, 2.75 µM and 0.389 µM, respectively.

Consider `Cc1ccc(C(=O)N2CCC(c3ccc(-c4cnn(C)c4)cc3)CC2)cc1NC(=O)c1ccccc1` [Compound 115, N-(2-methyl-5-(4-(4-(1-methyl-1H-pyrazol-4-yl)phenyl)piperidine-1-carbonyl)phenyl)benzamide], for which the IC50 with A2780 ovarian cells [2] is greater than 10 µM; with A2780 ovarian cells [4] it was 0.162 µM. Also, the inhibition at 10 µM in assay [3] worked out at 99%.
